{
  "source": "patent US8293290B2",
  "about": "“Annatto extract compositions, including geranyl geraniols and methods of use” (American River Nutrition, Inc., priority 2003, dated 2012)",
  "origin": "cited, not measured here",
  "key": {"PPARγ": {"target": "T1, PPARγ (Mus musculus, UniProt P37238)", "T1 construct": "host or cells: 3T3-L1 adipocytes (from the cited title only)", "T1 sequence (P37238 1-505)": "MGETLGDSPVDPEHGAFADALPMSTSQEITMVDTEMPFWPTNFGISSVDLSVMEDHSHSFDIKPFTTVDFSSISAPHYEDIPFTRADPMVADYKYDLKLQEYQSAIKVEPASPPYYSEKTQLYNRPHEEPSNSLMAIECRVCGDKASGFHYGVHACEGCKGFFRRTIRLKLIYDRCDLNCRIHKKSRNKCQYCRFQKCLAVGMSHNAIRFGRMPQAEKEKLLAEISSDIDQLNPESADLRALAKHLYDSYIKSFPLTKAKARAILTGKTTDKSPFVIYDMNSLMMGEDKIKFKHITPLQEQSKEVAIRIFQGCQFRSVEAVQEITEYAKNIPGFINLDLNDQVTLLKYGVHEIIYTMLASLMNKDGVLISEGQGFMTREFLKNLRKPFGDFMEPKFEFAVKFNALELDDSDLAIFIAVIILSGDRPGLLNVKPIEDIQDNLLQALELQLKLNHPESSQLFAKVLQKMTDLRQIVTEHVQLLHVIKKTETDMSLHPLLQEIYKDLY", "settings": "at the adipocytes"}, "[1]": {"system": "untransformed cells or normal cells"}, "PPARα": {"target": "T2, PPARα (Homo sapiens, UniProt Q07869)", "T2 construct": "host or cells: HepG2 hepatocytes (from the cited title only)", "T2 sequence (Q07869 1-468)": "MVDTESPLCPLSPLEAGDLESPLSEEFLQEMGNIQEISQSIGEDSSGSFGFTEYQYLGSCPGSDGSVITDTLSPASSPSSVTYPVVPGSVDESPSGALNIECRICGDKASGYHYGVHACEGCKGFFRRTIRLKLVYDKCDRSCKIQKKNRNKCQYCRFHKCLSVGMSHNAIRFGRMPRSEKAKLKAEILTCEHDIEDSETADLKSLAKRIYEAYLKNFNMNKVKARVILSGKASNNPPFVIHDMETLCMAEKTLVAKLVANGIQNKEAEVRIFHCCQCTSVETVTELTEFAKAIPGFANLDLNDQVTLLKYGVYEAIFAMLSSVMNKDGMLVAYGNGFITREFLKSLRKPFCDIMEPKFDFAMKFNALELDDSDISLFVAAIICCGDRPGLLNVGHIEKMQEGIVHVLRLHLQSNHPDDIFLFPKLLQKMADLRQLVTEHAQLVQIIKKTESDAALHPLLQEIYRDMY", "settings": "at the hepatocytes"}, "[2]": {"settings": "exogenous oral supplementation"}, "prostate cancer patients": {"system": "prostate cancer patients", "settings": "after one year of CoQ10 supplementation"}},
  "data": [
    {"smiles": "CC(C)=CCC/C(C)=C/CC/C(C)=C/CC/C(C)=C/CO", "note": "[GG, Geranyl geraniol]", "values": [
      {"measurement": "PPARγ activation", "setting": "PPARγ", "result": "activates"},
      {"measurement": "inhibition of cytochrome P450 enzymes (incl. CYP3A4)", "setting": "cytochrome P450 enzymes", "result": "does not inhibit"},
      {"measurement": "cytotoxicity (cell rounding, indicator of myotoxicity)", "setting": "[1]", "result": "not cytotoxic"},
      {"measurement": "toxicity to untransformed cells or normal cells", "setting": "[1]", "result": "not toxic"},
      {"measurement": "PPARα activation", "setting": "PPARα", "result": "activates"}
    ]},
    {"smiles": "COC1=C(OC)C(=O)C(C/C=C(\\C)CC/C=C(\\C)CC/C=C(\\C)CC/C=C(\\C)CC/C=C(\\C)CC/C=C(\\C)CC/C=C(\\C)CC/C=C(\\C)CC/C=C(\\C)CCC=C(C)C)=C(C)C1=O", "note": "[CoQ10, coenzyme Q10]", "values": [
      {"measurement": "fraction of supplemental CoQ10 absorbed", "setting": "[2]", "result": "less than 5%"},
      {"measurement": "decrease of prostate mass", "setting": "prostate cancer patients", "result": 47, "unit": "%"},
      {"measurement": "decrease of prostate specific antigen (PSA)", "setting": "prostate cancer patients", "result": 71, "unit": "%"}
    ]}
  ]
}
